Assay results reported in patent US20170003277A1 (priority 2015, published 2017).

What was measured:
[1] = tested on: THP-1 human monocyte cell line; test: Pathway enrichment (DAVID) in THP-1 study: Copaxone vs mannitol and Probioglat vs GA; type: cell-based; settings: top upregulated genes, Copaxone vs mannitol, 6 hours
[2] = tested on: THP-1 human monocyte cell line; test: Pathway enrichment (DAVID) in THP-1 cells, Example 9; type: cell-based; settings: genes upregulated vs mannitol, 6 hours
Procedure: Nucleic Acids Res. 37, 1-13 (2009)]. Pathway enrichment results were visualized using volcano plots, plotting −log p-values versus enrichment scores. For GA MOA, to obtain top-gene lists of appropriate size (tens-hundreds) for use with DAVID, an absolute-value fold-change cutoff of 1.5 and p-value cutoff of 1e-3 were utilized to obtain gene lists for pathway enrichment. […] DAVID runs were conducted on Sep. […] Please note that the GO databases are updated daily (as noted on the GO site:www.geneontology.org/GO.downloads.ontology.shtml) and therefore performing the same enrichments on the same genesets may yield slightly varying results depending on the rundate. Pathway p-values may change slightly between runs conducted at different times; the overall picture of enriched pathways, however, is expected to remain consistent.
Performing the same enrichments on the same genesets may yield slightly varying results depending on the run date (GO databases are updated daily: www.geneontology.org/GO.downloads.ontology.shtml).

For glatiramer acetate [Copaxone®], the “Fold Enrichment: GO: 0009611~response to wounding” value [1] was 4.097, the “Fold Enrichment: GO: 0009617~response to bacterium” value [1] was 4.268 and the “Fold Enrichment: GO: 0009897~external side of plasma membrane” value [1] was 6.497. The “Fold Enrichment: GO: 0009986~cell surface” value [1] was 4.067, the “Fold Enrichment: GO: 0010033~response to organic substance” value [1] was 2.03 and the “Fold Enrichment: GO: 0016020~membrane” value [1] was 1.538. The “Fold Enrichment: GO: 0016021~integral to membrane” value [1] was 1.676, the “Fold Enrichment: GO: 0016477~cell migration” value [1] was 3.203 and the “Fold Enrichment: GO: 0016502~nucleotide receptor activity” value [1] was 12.55. The “Fold Enrichment: GO: 0019955~cytokine binding” value [1] was 6.971, the “Fold Enrichment: GO: 0022610~biological adhesion” value [1] was 2.94 and the “Fold Enrichment: GO: 0030247~polysaccharide binding” value [1] was 5.244. The “Fold Enrichment: GO: 0030574~collagen cataboltc process” value [1] was 20.7, the “Fold Enrichment: GO: 0031012~extracellular matrix” value [1] was 5.017 and the “Fold Enrichment: GO: 0031224~intrinsic to membrane” value [1] was 1.684. For the same substance, the “Fold Enrichment: GO: 0031226~intrinsic to plasma membrane” value [1] was 3.268, the “Fold Enrichment: GO: 0031347~regulation of defense response” value [1] was 5.519 and the “Fold Enrichment: GO: 0031349~positive regulation of defense response” value [1] was 6.758. The “Fold Enrichment: GO: 0031960~response to corticosteroid stimulus” value [1] was 6.623, the “Fold Enrichment: GO: 0032101~regulation of response to external stimulus” value [1] was 6.288 and the “Fold Enrichment: GO: 0032496~response to lipopolysaccharide” value [1] was 5.682. The “Fold Enrichment: GO: 0032502~developmental process” value [1] was 1.643, the “Fold Enrichment: GO: 0032879~regulation of localization” value [1] was 2.359 and the “Fold Enrichment: GO: 0040011~locomotion” value [1] was 3.21. For the same substance, the “Fold Enrichment: GO: 0042221~response to chemical stimulus” value [1] was 1.879, the “Fold Enrichment: GO: 0042330~taxis” value [1] was 4.651 and the “Fold Enrichment: GO: 0044243~multicellular organismal catabolic process” value [1] was 20.7. The “Fold Enrichment: GO: 0044421~extracellular region part” value [1] was 3.61, the “Fold Enrichment: GO: 0044425~membrane part” value [1] was 1.539 and the “Fold Enrichment: GO: 0044459~plasma membrane part” value [1] was 2.404. The “Fold Enrichment: GO: 0045028~purinergic nudeotide receptor activity, G-protein coupled” value [1] was 13.87, the “Fold Enrichment: GO: 0045595~regulation of cell differentiation” value [1] was 2.517 and the “Fold Enrichment: GO: 0046903~secretion” value [1] was 3.164. For the same substance, the “Fold Enrichment: GO: 0048513~organ development” value [1] was 1.846, the “Fold Enrichment: GO: 0048514~blood vessel morphogenesis” value [1] was 3.398 and the “Fold Enrichment: GO: 0048518~positive regulation of biological process” value [1] was 1.559. For the same substance, the “Fold Enrichment: GO: 0048519~negative regulation of biological process” value [1] was 1.629, the “Fold Enrichment: GO: 0048545~response to steroid hormone stimulus” value [1] was 4.216 and the “Fold Enrichment: GO: 0048583~regulation of response to stimulus” value [1] was 3.613. The “Fold Enrichment: GO: 0048584~positive regulation of response to stimulus” value [1] was 3.79, the “Fold Enrichment: GO: 0048731~system development” value [1] was 1.918 and the “Fold Enrichment: GO: 0048856~anatomical structure development” value [1] was 1.792. The “Fold Enrichment: GO: 0048869~cellular developments process” value [1] was 1.736, the “Fold Enrichment: GO: 0048870~cell motility” value [1] was 2.99 and the “Fold Enrichment: GO: 0050727~regulation of inflammatory response” value [1] was 8.87. The “Fold Enrichment: GO: 0050729~positive regulation of inflammatory response” value [1] was 11.5, the “Fold Enrichment: GO: 0050776~regulation of immune response” value [1] was 4.293 and the “Fold Enrichment: GO: 0050793~regulation of developmental process” value [1] was 3.161. The “Fold Enrichment: GO: 0050864~regulation of B cell activation” value [1] was 8.565, the “Fold Enrichment: GO: 0050865~regulation of cell activation” value [1] was 4.296 and the “Fold Enrichment: GO: 0050867~positive regulation of cell activation” value [1] was 4.664. For the same substance, the “Fold Enrichment: GO: 0050896~response to stimulus” value [1] was 1.852, the “Fold Enrichment: GO: 0051239~regulation of multicellular organismal process” value [1] was 2.792 and the “Fold Enrichment: GO: 0051241~negative regulation of multicellular organismal” value [1] was 4.902. The “Fold Enrichment: GO: 0051270~regulation of cell motion” value [1] was 3.643, the “Fold Enrichment: GO: 0051384~response to glucocorticoid stimulus” value [1] was 7.046 and the “Fold Enrichment: GO: 0051674~localization of cell” value [1] was 2.99. The “Fold Enrichment: GO: 0051704~multi-organism process” value [1] was 2.223, the “Fold Enrichment: GO: 0051707~response to other organism” value [1] was 4.426 and the “Fold Enrichment: GO: 0060089~molecular transducer activity” value [1] was 2.537. For the same substance, the “Fold Enrichment: GO: 0065007~biological regulation” value [1] was 1.236, the “Fold Enrichment: GO: 0065008~regulation of biological quality” value [1] was 2.067 and the “Fold Enrichment: GO: 0080134~regulation of response to stress” value [1] was 3.7. For the same substance, the “Fold Enrichment: GO: 00322501~multicellular organismal process” value [1] was 1.77, the “Fold Enrichment: GO: 00550878~regulation of body fluid levels” value [1] was 4.87 and the “Fold Enrichment: hsa04060:Cytokine-cytokine receptor interaction” value [1] was 3.911. For the same substance, the “Fold Enrichment” value ([2]; GO:0001503~ossification (GOTERM BP_ALL)) was 4.068, the “Fold Enrichment” value ([2]; GO:0007204~elevation of cytosolic calcium ion concentration (GOTERM BP_ALL)) was 4.773 and the “Fold Enrichment” value ([2]; GO:0010557~positive regulation of macromolecule biosynthetic process (GOTERM BP_ALL)) was 1.871. The “Fold Enrichment” value ([2]; GO:0010628~positive regulation of gene expression (GOTERM BP_ALL)) was 1.936 and the “Fold Enrichment” value ([2]; GO:0051241~negative regulation of multicellular organismal process (GOTERM BP_ALL)) was 3.649.
